Earlier results as cited in US12396967B2 (Pulmonem Inc., priority 2020, dated 2025).

Tested on: human bronchial epithelial cells stimulated with lipopolysaccharide

For `Nc1ccc(S(=O)(=O)c2ccc(N)cc2)cc1` [Dapsone, 4,4′-diamino-diphenyl sulfone], the IL-8 secretion is listed as “inhibits IL-8 secretion”.
